Structures are written as SMILES.

For series [1], the system named is DMD boys. Particulars: added to background ACE inhibitor or ARB therapy; at 12 months; Raman et al. 2015; cited from earlier work.
Series [2] concerns MDX-mice. The series can be described thus: Grip strength test (front-leg muscle strength) in MDX mice. In kind it is in vivo. Particulars: for GS/BW trial 5 / GS/BW trial 1 / Grip Strength trial 1 / Grip Strength trial 5: MDX-mice treated 16 weeks via chow (150 ppm BAY 41-2272 or 100 ppm Finerenone), Mean ± SEM; for GS/BW trial 5 / GS/BW trial 1: grip strength related to body weight; for GS/BW trial 5: fatigued mice; for GS/BW trial 1: rested mice; for Grip Strength trial 1: highest force from rested mice; for Grip Strength trial 5: highest force in fatigued mice; for Effect on muscle strength (grip strength), in words: MDX-mice treated 16 weeks, each compound alone; for Efficacy of monotherapy compared with combination of steroidal MR antagonist (spironolactone) and ACE inhibitor (lisinopril): regarding grip strength, base myocardial strain rate and forces after lengthening contractions of the EDL, comparator from Lowe et al. From the text:
(§1) Preferentially mice were used, especially transgenic mice (B6.Cg-^Terctm1Rdp Dmd^mdx-4Cv/BlauJ; Jackson Laboratories, strain Nr.: 023535; Dystrophin-deficient, utrophin haplo-insufficient (utrn +/−; mdx)). These so called MDX mice carry a mutation in the dystrophin gene which reflects the phenotype and clinical situation of patients with muscular dystrophies (Sacco et al.; Cell. 2010 Dec. 23; 143(7):1059-71, Mourkioti et al. Nat Cell Biol. 2013 August; 15(8):895-904).
(§2) As read-outs were preferentially used: • In vitro, hydroxyproline measurement to assess fibrotic tissue. To analyze the collagen content in tissue samples, hydroxyproline assays were performed. After digestion of the tissue (e.g. heart and muscle) in 6M HCl for three hours at 120° C., chloramine T (0.06 M) was added and samples were mixed and incubated for 20 min at room temperature. 3.15 M perchloric acid and 20% p-dimethylaminobenzaldehyde were added and samples were incubated for additional 20 min at 60° C. The absorbance was determined at 557 nm. • In vitro, semiquantitative RT/PCR (TaqMan PCR) was used to assess gene expression. Mice were euthanized and hearts and muscles (e.g. EDL=extensor digitorum longus muscle, diaphragm) were collected. Total RNA was isolated and gene expression was semiquantified after reverse transcription (RT) reaction via TaqMan polymerase chain reaction (PCR). • In vitro, histopathology to assess heart and muscle damage. Mice were euthanized and hearts and muscles (e.g. EDL, diaphragm) were collected. Cryosections were prepared and stained with Hematoxylin and Eosin (H&E) to assess overall histopathology. • Ex vivo, contractility measurements of muscle contraction in isolated muscles (e.g. EDL, diaphragm) to assess muscle function and contractility. Isolated muscles were stretched to optimal length using twitch contractions (evoked by a single 4 ms pulse). After 10 minutes, a tetanus contraction was performed (150 Hz for 250 ms). After another 5 min rest period, 6 eccentric contractions (150 Hz for 450 ms, subjected to a 3% stretch for the final 200 ms of contraction) were done with two minutes of rest between the first 5 stimulations and 15 minutes of rest between the fifth and sixth stimulation. • In vivo, non-invasive echocardiography and computer tomography to assess heart and cardiovascular function. Mice were anaesthetized and heart structure and function was assessed non-invasively by using the echocardiograph type Vevo2100. In addition, cardiac function was investigated in anesthetized mice by using magnetic resonance imaging (MRI) technique on a 9.4 or 11.7 Tesla 30 mm bore system (Bruker Biospin) together with standard electrocardiographic (ECG). Myocardial strain and strain rate were assessed using vector-based tracking software (Vector Velocity Imaging, Siemens). • In vivo, invasive left-ventricular function and pressure-volume relationship to assess heart and cardiovascular function. Invasive left-ventricular hemodynamics were performed in anaesthetized mice using a pressure catheter and a PN loop catheter. • In vivo assessment of muscle force (Hanging wire test, four limb hanging test, grip strength test) to asses muscle function. For the hanging wire and four limb hanging test, conscious mice are freely hanging on a grid and hanging time is recorded and corrected for body weight of the mice. The grip strength (GS) measurements to investigate front-leg muscle strength were performed in conscious mice by using a grip strength meter (Columbus Instruments). Mice were trained to hold on with their front paws on a wire mesh grid and carefully pulled backwards. This procedure was repeated up to 5 times with one minute breaks between measurements and the maximal power in Newton (N) was registered. The highest grid strength value (GS) in Newton was reported and related to body weight (BW) in mg. […] (Table 1). • In vivo assessment of physical capacity was assessed. […]

Series [3] relates to MDX-mice. The series can be described thus: Endocardial circumferential peak systolic strain rate at the base of the heart (MRI, vector-based tracking). In kind it is in vivo. The note with it: for Effect on heart function (systolic strain rate), in words: MDX-mice treated 16 weeks; for Base_PeakSysSR_Lat (endocardial circumferential S−1) / Base_PeakSysSR_Mean (endocardial circumferential S−1) / Base_PeakSysSR_Septum (endocardial circumferential S−1): MDX-mice treated 16 weeks via chow (150 ppm BAY 41-2272 or 100 ppm Finerenone), base of the heart, Mean ± SEM; for Base_PeakSysSR_Lat (endocardial circumferential S−1): lateral; for Base_PeakSysSR_Mean (endocardial circumferential S−1): mean; for Base_PeakSysSR_Septum (endocardial circumferential S−1): septum.
From the text: as §1, §2

The test system of series [4] is MDX-mice. As to the kind of experiment: EDL eccentric contractions (ex vivo contractility of isolated muscle from treated mice). The format is in vivo. The note with it: for Ecc2 (% Ecc1) / Ecc5 (% Ecc1) / Post-rest Ecc6 (% Ecc1): EDL of MDX-mice treated 16 weeks via chow (150 ppm BAY 41-2272 or 100 ppm Finerenone), Mean ± SEM; for Ecc2 (% Ecc1): 2nd eccentric contraction; for Ecc5 (% Ecc1): 5th eccentric contraction; for Post-rest Ecc6 (% Ecc1): 6th eccentric contraction after 15 minutes of rest; for Effect on muscle strength (EDL eccentric contractions), in words: MDX-mice treated 16 weeks.
From the text: as §1, §2

For series [5] the following is noted: rats, [14C]-labeled; Kolkhof et al. 2014; cited from earlier work.

`COC(=O)[C@@H]1CC2=CC(=O)CC[C@]2(C)[C@@]23O[C@@H]2C[C@@]2(C)[C@@H](CC[C@@]24CCC(=O)O4)[C@H]13` [eplerenone]: in series [1], the “Effect on left ventricular systolic function (LV circumferential strain)” value is “attenuates the progressive decline in left ventricular systolic function”.

For the compound `CCOc1ncc(C)c2c1[C@H](c1ccc(C#N)cc1OC)C(C(N)=O)=C(C)N2` [Finerenone, (S)-4-(4-Cyano-2-methoxyphenyl)-5-ethoxy-2,8-dimethyl-1,4-dihydro-1,6-naphthyridin-3-carboxamid], in series [2], the GS/BW trial 5 was 37.5 ± 1.1 mN/g, the GS/BW trial 1 is 40.3 ± 1 mN/g, the “Grip Strength trial 1” value stood at 1.1 ± 0.04 N and the “Grip Strength trial 5” value is 1.1 ± 0.04 N. Moreover, in series [2], the “Effect on muscle strength (grip strength), in words” value was “improvement of muscle strength”; the “Efficacy of monotherapy compared with combination of steroidal MR antagonist (spironolactone) and ACE inhibitor (lisinopril)” value is “superior”. Also, the “Efficacy of monotherapy compared with combination of steroidal MR antagonist (spironolactone) and ACE inhibitor (lisinopril)” value in series [2] (listed as (S)-4-(4-Cyano-2-methoxyphenyl)-5-ethoxy-2,8-dimethyl-1,4-dihydro-1,6-naphthyrid) was “as effective as”. In series [3], the “Effect on heart function (systolic strain rate), in words” value is “attenuation of heart function decline”; the “Base_PeakSysSR_Lat (endocardial circumferential S−1)” value was found to be 0.39 ± 0.04 S−1; the “Base_PeakSysSR_Mean (endocardial circumferential S−1)” value was determined as 0.35 ± 0.03 S−1; the “Base_PeakSysSR_Septum (endocardial circumferential S−1)” value came to 0.34 ± 0.04 S−1. In addition, in series [4], the “Ecc2 (% Ecc1)” value is listed as 94 ± 5 % Ecc1; the “Ecc5 (% Ecc1)” value was determined as 71 ± 7 % Ecc1; the “Post-rest Ecc6 (% Ecc1)” value amounted to 72 ± 6 % Ecc1; the “Effect on muscle strength (EDL eccentric contractions), in words” value is given as “improvement of muscle strength”. Also, in series [5], the “Tissue distribution into cardiac and kidney tissues” value is “balanced distribution”.

For the compound `Nc1nc(-c2nn(Cc3ccccc3F)c3ncccc23)ncc1C1CC1` [BAY41-2272, 3-(4-amino-5-cyclopropylpyrimidin-2-yl)-1-(2-fluorobenzyl)-1H-pyrazolo[3,4-b]pyridine], in series [2], the GS/BW trial 5 was 33.9 ± 0.9 mN/g, the GS/BW trial 1 stood at 38.3 ± 1.1 mN/g, the “Grip Strength trial 1” value was determined as 1.0 ± 0.04 N and the “Grip Strength trial 5” value is 0.9 ± 0.04 N. For the same compound, in series [2], the “Effect on muscle strength (grip strength), in words” value is on record as “improvement of muscle strength”. Also, in series [3], the “Effect on heart function (systolic strain rate), in words” value is “attenuation of heart function decline”; the “Base_PeakSysSR_Lat (endocardial circumferential S−1)” value is listed as 0.37 ± 0.02 S−1; the “Base_PeakSysSR_Mean (endocardial circumferential S−1)” value is recorded as 0.36 ± 0.02 S−1; the “Base_PeakSysSR_Septum (endocardial circumferential S−1)” value is 0.39 ± 0.03 S−1. Moreover, in series [4], the “Ecc2 (% Ecc1)” value is on record as 86 ± 2 % Ecc1; the “Ecc5 (% Ecc1)” value was determined as 60 ± 5 % Ecc1; the “Post-rest Ecc6 (% Ecc1)” value was found to be 60 ± 5 % Ecc1; the “Effect on muscle strength (EDL eccentric contractions), in words” value is recorded as “improvement of muscle strength”.

Values taken from patent publication US11439628B2, “Use of non-steroidal mineralocorticoid receptor antagonists alone or in combination for the treatment of muscular or neuromuscular diseases” (Bayer Aktiengesellschaft, priority 2018, dated 2022).
